Reference: patent publication US6777440B2, “HIV integrase inhibitors” (Bristol-Myers Squibb Company, priority 2001, dated 2004)

Columns and labels:
[1] = Hydrolysis of prodrugs under physiological conditions (pH 7, 37° C., HPLC); format: physicochemical; conditions: 25 mM phosphate buffer pH 7, 37° C.; for Compound 3: parent acid formed from 3-C; for Compound 3-C: remaining prodrug
Procedure: As shown in Scheme VII, compounds of Formula VII-A wherein R^1 and R^2 are as defined for Formula I, are hydrolyzed at pH 7 (37° C.) to yield the corresponding 2-hydroxy acrylic, VII-B, and are thus useful as prodrugs. [drawing 203]
In an experiment to measure the hydrolysis of compounds such as VII-A, compound 3-C was added to 25 mM phosphate buffer (pH 7) at a concentration of 0.03 mg/mL. The reaction was incubated at 37° C. for a period of 24 hours. Interval time points are analyzed by HPLC, identifying both the compound 3-C and compound 3, the parent acid.

[2] = test system: single cycle, recombinant HIV virus expressing Renella luciferase; experiment: Inhibition of HIV replication (single cycle recombinant virus, luciferase readout); format: cell-based; conditions: Human immunodeficiency virus 1, 120 h, read-out: % Inhibition @ 1.6 uM
Procedure: Cell culture assays were preformed using a single cycle, recombinant HIV virus expressing Renella luciferase. Anti-viral activity was evaluated by measuring the production of luciferase in the infected cells 5 days post-infection. Susceptibility of the virus to compounds was determined by incubation in the presence of the serially-diluted compound. The 50% effective concentration (EC50) was calculated by using the exponential form of the median effect equation where (Fa)=1/[1+(ED50/drug conc.)^m]. Compounds of this invention tested in this assay have EC50's of approximately 0.02 to 50 μM.

HIV-integrase = biological target: T1, HIV-integrase (Human immunodeficiency virus type 1 group M subtype B, UniProt P04585); experiment: HIV-integrase inhibition activity (SPA bead strand-transfer assay); format: biochemical; conditions: 50 μM compound; recombinant integrase
T1 construct: 0.26 ng of recombinant integrase was incubated with the beads
Procedure: For each reaction, 5 pmole of biotin labled substrate DNA was bound to 100 ug of Streptavidin coated PVT SPA beads (Amersham Pharmacia Biotech). 0.26 ng of recombinant integrase was incubated with the beads for 90 min at 37° C. Unbound enzyme was removed by washing the complex followed by addition of inhibitors and 0.1 fmol of P33 labeled target DNA. Reaction was stopped by adding EDTA to a final concentration of 10 mM. Samples were counted in TopCountNXT (Packard) and the CPM was used as a measure of integration. Reaction condition was as described in A. Engelman and R. Craigie, J. Virol. 69, 5908-5911 (1995). The sequences of substrate and target DNA were described in Nucleic Acid Research 22, 1121-1122 (1994). Compounds of this invention tested in this assay have IC50's of approximately 0.01 to 50 μM

Row | SMILES | inhibition at 1.6 µM [2] [%] | inhibition at 50 µM (HIV-integrase) [%] | melting point | further results
1 | CON(Cc1ccc(F)cc1)C(=O)/C=C(\O)C(=O)O [Compound 3, 3-[(4-Fluoro-benzyl)-methoxy-carbamoyl]-2-hydroxy-acrylic acid] | 96 | 99.9 | 129 °C (dec.) | Compound 3 ([1]; time 0 h): 0.001 mg/mL; Compound 3 ([1]; time 0.5 h): 0.008 mg/mL; Compound 3 ([1]; time 1 h): 0.012 mg/mL; Compound 3 ([1]; time 1.5 h): 0.014 mg/mL; Compound 3 ([1]; time 2 h): 0.016 mg/mL; Compound 3 ([1]; time 4 h): 0.021 mg/mL; Compound 3 ([1]; time 6 h): 0.022 mg/mL
2 | CON(Cc1ccc(F)cc1)C(=O)/C=C1\OC(C)(C)OC1=O [Compound 3-C, 2-(2,2-Dimethyl-5-oxo-[1,3]dioxolan-4-ylidene)-N-(4-fluoro-benzyl)-N-methoxy-acetamide] | 96 | – | – | Compound 3-C ([1]; 3-C added at 0.03 mg/mL, time 0 h): 0.026 mg/mL; Compound 3-C ([1]; time 0.5 h): 0.022 mg/mL; Compound 3-C ([1]; time 1 h): 0.017 mg/mL; Compound 3-C ([1]; time 1.5 h): 0.013 mg/mL; Compound 3-C ([1]; time 2 h): 0.010 mg/mL; Compound 3-C ([1]; time 4 h): 0.003 mg/mL; Compound 3-C ([1]; time 6 h): 0.001 mg/mL
3 | CON(Cc1ccc(Cl)c(Cl)c1)C(=O)/C=C(\O)C(=O)O [Compound 4, 3-[(3,4-Dichloro-benzyl)-methoxy-carbamoyl]-2-hydroxy-acrylic acid] | 90 | 99.9 | – | –
4 | CON(Cc1ccc(Cl)c(Cl)c1)C(=O)/C=C1\OC(C)(C)OC1=O [Compound 4-B, N-(3,4-Dichloro-benzyl)-2-(2,2-dimethyl-5-oxo-[1,3]dioxolan-4-ylidene)-N-methoxy-acetamide] | 87 | – | 119 to 120 °C | –
5 | CON(Cc1ccc(F)c(Cl)c1)C(=O)/C=C(\O)C(=O)O [Compound 5, 3-[(3-Chloro-4-fluoro-benzyl)-methoxy-carbamoyl]-2-hydroxy-acrylic acid] | 96 | 99.9 | – | –
6 | CON(Cc1ccc(F)c(Cl)c1)C(=O)/C=C1\OC(C)(C)OC1=O [Compound 5-B, N-(3-Chloro-4-fluoro-benzyl)-2-(2,2-dimethyl-5-oxo-[1,3]dioxolan-4-ylidene)-N-methoxy-acetamide] | 94 | – | 110 to 111 °C | –
7 | CON(CCc1ccc(F)cc1)C(=O)/C=C(\O)C(=O)O [Compound 9, 3-{[2-(4-Fluoro-phenyl)-ethyl]-methoxy-carbamoyl}-2-hydroxy-acrylic acid] | – | 99.9 | 107 to 108 °C (dec.) | –
8 | CON(Cc1ccc(F)c(F)c1)C(=O)/C=C(\O)C(=O)O [Compound 11, 3-[(3,4-Difluoro-benzyl)-methoxy-carbamoyl]-2-hydroxy-acrylic acid] | – | 99.9 | 127 to 129 °C | –
9 | CCON(Cc1ccc(F)cc1)C(=O)/C=C(\O)C(=O)O [Compound 12, 3-[Ethoxy-(4-fluoro-benzyl)-carbamoyl]-2-hydroxy-acrylic acid] | – | 99.9 | 120 to 121 °C (dec.) | –
10 | CC(C)CON(Cc1ccc(F)cc1)C(=O)/C=C(\O)C(=O)O [Compound 13, 3-[(4-Fluoro-benzyl)-isobutoxy-carbamoyl]-2-hydroxy-acrylic acid] | – | 99.9 | 100 to 101 °C | –
11 | CON(Cc1ccc(F)c(Br)c1)C(=O)/C=C(\O)C(=O)O [Compound 14, 3-[(3-Bromo-4-fluoro-benzyl)-methoxy-carbamoyl]-2-hydroxy-acrylic acid] | – | 99.9 | 140 to 141 °C | –
12 | CON(Cc1ccccc1C)C(=O)/C=C(\O)C(=O)O [Compound 15, 2-Hydroxy-3-[methoxy-(2-methyl-benzyl)-carbamoyl]-acrylic acid] | 33 | 99 | 85 to 87 °C (dec.) | –
13 | COc1ccc(CN(OC)C(=O)/C=C(\O)C(=O)O)cc1 [Compound 16, 2-Hydroxy-3-[methoxy-(4-methoxy-benzyl)-carbamoyl]-acrylic acid] | – | 99 | 83 to 86 °C | –
14 | CON(Cc1ccc(F)cc1F)C(=O)/C=C(\O)C(=O)O [Compound 17, 3-[(2,4-Difluoro-benzyl)-methoxy-carbamoyl]-2-hydroxy-acrylic acid] | – | 99.9 | 131 to 132 °C | –
15 | COC(=O)c1ccc(CN(OC)C(=O)C=C(O)C(=O)O)cc1 [Compound 18, 4-{[(3-Carboxy-3-hydroxy-acryloyl)-methoxy-amino]-methyl}-benzoic acid methyl ester] | – | 96 | 110 to 111 °C | –
16 | CON(Cc1ccc(F)c(C#N)c1)C(=O)/C=C(\O)C(=O)O [Compound 19, 3-[(3-Cyano-4-fluoro-benzyl)-methoxy-carbamoyl]-2-hydroxy-acrylic acid] | – | 99.9 | 144 to 151 °C (dec.) | –
17 | CC(C)(C)OC(=O)CON(Cc1ccc(F)cc1)C(=O)/C=C(\O)C(=O)O [Compound 20, 3-[tert-Butoxycarbonylmethoxy-(4-fluoro-benzyl)-carbamoyl]-2-hydroxy-acrylic acid] | – | 99.9 | 73 °C (dec.) | –
18 | CON(Cc1ccc(C#N)cc1)C(=O)/C=C(\O)C(=O)O [Compound 21, 3-[(4-Cyano-benzyl)-methoxy-carbamoyl]-2-hydroxy-acrylic acid] | – | 99.9 | 135 to 137 °C (dec.) | –
19 | CN(C)C(=O)CON(Cc1ccc(F)cc1)C(=O)/C=C(\O)C(=O)O [Compound 22, 3-[Dimethylcarbamoylmethoxy-(4-fluoro-benzyl)-carbamoyl]-2-hydroxy-acrylic acid] | – | 99.9 | 118 to 120 °C | –
20 | CON(Cc1ccc(NC(C)=O)cc1)C(=O)/C=C(\O)C(=O)O [Compound 23, 3-[(4-Acetylamino-benzyl)-methoxy-carbamoyl]-2-hydroxy-acrylic acid] | – | 65 | 155 °C (dec.) | –
21 | O=C(O)CON(Cc1ccc(F)cc1)C(=O)/C=C(\O)C(=O)O [Compound 24, 3-[Carboxymethoxy-(4-fluoro-benzyl)-carbamoyl]-2-hydroxy-acrylic acid] | – | 99.9 | 135 to 138 °C | –
22 | CON(Cc1ccccc1OC(C)C)C(=O)/C=C(\O)C(=O)O [Compound 31, 2-Hydroxy-3-[(2-isopropoxy-benzyl)-methoxy-carbamoyl]-acrylic acid] | 47 | – | – | –
23 | CCNC(=O)CON(Cc1ccc(F)cc1)C(=O)/C=C(\O)C(=O)O [Compound 78] | – | > 99 | – | –
24 | CC(C)CNC(=O)CON(Cc1ccc(F)cc1)C(=O)/C=C(\O)C(=O)O [Compound 79] | – | > 99 | – | –
